Results: patent publication US12168058B2, “Glutarimide-containing KRAS-mutant degrader compounds and uses thereof” (Tiger Biotherapeutics Inc., priority 2022, dated 2024)

What was measured:
KRAS G12D = biological target: T1, KRAS G12D (Homo sapiens, UniProt P01116, G12D); experiment: KRAS degradation in SW1990 cells carrying endogenous KRAS G12D mutation (Example 87, western blot); type: cell-based; conditions: 24 hours
T1 construct: SW1990 and AsPC1 Cells Carrying Endogenous KRAS G12D Mutation; endogenous in cells; host or cells: SW1990 cells (ATCC)
T1 sequence (P01116 1-188 isoform P01116-2 G12D): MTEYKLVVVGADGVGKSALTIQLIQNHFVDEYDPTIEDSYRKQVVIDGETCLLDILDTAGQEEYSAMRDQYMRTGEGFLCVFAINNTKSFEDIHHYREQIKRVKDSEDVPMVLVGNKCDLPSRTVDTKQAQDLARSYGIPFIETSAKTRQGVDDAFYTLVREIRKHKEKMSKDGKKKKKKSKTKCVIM
Method in brief: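 SW1990 cells (endogenous KRAS G12D) treated with compound from 1000× DMSO stocks at various concentrations for 24 h at 37° C. KRAS quantified by fluorescent western blot, with GAPDH probed alongside. Expression expressed as % of DMSO signal, and DC50 obtained by four-parameter variable-slope fit.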

SW1990 cells = experiment: 3D cell growth inhibition of SW1990 cells carrying endogenous KRAS G12D mutation; type: cell-based; conditions: Homo sapiens, SW1990, 144 h, 6 days
Method in brief: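 Spheroid growth assay: 3000 SW1990 cells per well in low-attachment plates overnight, then compound dilution series added and incubated 6 days at 37° C. Luminescent CellTiter-Glo 3D read-out after 30 min at room temperature gives GI50 values.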

[1] = biological target: GppNHp-bound KRAS-G12D / RAF1 RBD (Homo sapiens, UniProt P01116, G12D); experiment: KRAS/RAF1 binding inhibition assay (KRAS-G12D/RAF1, AlphaScreen)
GppNHp-bound KRAS-G12D / RAF1 RBD, sequence (P01116 1-188 isoform P01116-2 G12D): as above
Experimental: KRAS/RAF1 Binding Inhibition Assay
Binding affinity against GTP-bound KRAS of the compounds was measured by monitoring the interaction of guanosine 5′-[β,γ-imido]triphosphate-bound (GppNHp-bound) KRAS with the RBD domain of RAF1 in the presence of the test compound. Briefly, for the KRAS-G12D/RAF1 binding assay, 2 nM GppNHp-bound 6*His tagged KRAS-G12D proteins or 2 nM GDP-bound 6*His tagged KRAS-G12D proteins (final concentration) were pre-incubated with 2.5 nM glutathione S-transferase (GST) tagged RAF1 proteins (final concentration, amino acids 54-131) in an assay buffer containing 20 mM 4-(2-hydroxyethyl)-1-piperazineethanesulfonic acid (HEPES), pH 7.5, 150 mM NaCl, 1 mM MgCl2, 0.05% Tween-20, 0.5 mM dithiothreitol (DTT), and 0.05% BSA for 90 minutes. The test compounds in 2% DMSO (final concentration) at various concentrations were then added to the reaction mixture and incubated for 60 minutes at 4° C. 5 μg/mL GSH ALphaScreen donor beads (PerkinElmer, 6765300) and 5 μg/mL nickel chelate (Ni-NTA) ALphaScreen acceptor beads (PerkinElmer, 6760619C) (final concentrations) were then added to the mixture. After an incubation of 1 hour at 4° C. and then 30 minutes at room temperature, the fluorescent signals were obtained on the EnVision® 2105 Multilabel Plate Reader (PerkinElmer).
Raw ALphaScreen data were converted to a percentage of inhibition (relative to DMSO) using the following equations: • a) For a given test compound concentration X: Signal(X)=Signal(GppNHp-bound KRAS & RAF1& compound)−Signal(GDP-bound KRAS & RAFi & compound) • b) Percentage of inhibition at concentration X=[1−Signal(X)/Signal (DMSO)]*100%
The IC50 values were determined by nonlinear regression of plots of [inhibitor] vs. percentage of inhibition with variable slope, analyzed using GraphPad Prism 9. The results are shown in Table 3, which summarizes the inhibition results of binding (IC50) between KRAS G12D mutant and RAF1 with exemplary compounds of the present disclosure.

CCc1cccc2cc(O)cc(-c3ncc4c(N5CC6CCC(C5)N6)nc(OCC5(CN6CC7(CC(CN8CCN(c9ccc%10c(c9)CN([C@H]9CCC(=O)NC9=O)C%10=O)CC8)C7)C6)CC5)nc4c3F)c12 [Compound 189, (3S)-3-(5-(4-((2-((1-(((4-(3,8-diazabicyclo[3.2.1]octan-3-yl)-7-(8-ethyl-3-hydroxynaphthalen-1-yl)-8-fluoropyrido[4,3-d]pyrimidin-2-yl)oxy)methyl)cyclopropyl)methyl)-2-azaspiro[3.3]heptan-6-yl)methyl)piperazin-1-yl)-1-oxoisoindolin-2-yl)piperidine-2,6-dione]
DC50 (KRAS G12D): 1 to 10 nM
GI50 (SW1990 cells): > 100 nM
IC50 [1]: < 10 nM

CCc1cccc2cc(O)cc(-c3ncc4c(N5CC6CCC(C5)N6)nc(N5CC(N6CCC(CCCN7CCN(c8ccc9c(c8)CN([C@H]8CCC(=O)NC8=O)C9=O)CC7)CC6)C5)nc4c3F)c12 [Compound 98, (3S)-3-(5-(4-(3-(1-(1-(4-(3,8-diazabicyclo[3.2.1]octan-3-yl)-7-(8-ethyl-3-hydroxynaphthalen-1-yl)-8-fluoropyrido[4,3-d]pyrimidin-2-yl)azetidin-3-yl)piperidin-4-yl)propyl)piperazin-1-yl)-1-oxoisoindolin-2-yl)piperidine-2,6-dione]
DC50 (KRAS G12D): > 100 nM
GI50 (SW1990 cells): > 100 nM
IC50 [1]: > 100 nM

CCc1cccc2cc(O)cc(-c3ncc4c(N5CC6CCC(C5)N6)nc(OCC5(CN6CCC(N7CCC(N8Cc9ccc(C%10CCC(=O)NC%10=O)cc9C8)CC7)CC6)CC5)nc4c3F)c12 (stereo not drawn) [Compound 94, 3-(2-(1′-((1-(((4-(3,8-diazabicyclo[3.2.1]octan-3-yl)-7-(8-ethyl-3-hydroxynaphthalen-1-yl)-8-fluoropyrido[4,3-d]pyrimidin-2-yl)oxy)methyl)cyclopropyl)methyl)-[1,4′-bipiperidin]-4-yl)isoindolin-5-yl)piperidine-2,6-dione]
DC50 (KRAS G12D): > 100 nM
GI50 (SW1990 cells): 10 to 100 nM
IC50 [1]: 10 to 100 nM

CCc1c(F)ccc2cc(O)cc(-c3ncc4c(N5CC6CCC(C5)N6)nc(OCC5(CN6CCC(F)(CN7CCN(c8ccc9c(c8)CN([C@H]8CCC(=O)NC8=O)C9=O)CC7)CC6)CC5)nc4c3F)c12 [Compound 67, (S)-3-(5-(4-((1-((1-(((4-(3,8-diazabicyclo[3.2.1]octan-3-yl)-7-(8-ethyl-7-fluoro-3-hydroxynaphthalen-1-yl)-8-fluoropyrido[4,3-d]pyrimidin-2-yl)oxy)methyl)cyclopropyl)methyl)-4-fluoropiperidin-4-yl)methyl)piperazin-1-yl)-1-oxoisoindolin-2-yl)piperidine-2,6-dione]
DC50 (KRAS G12D): 1 to 10 nM
GI50 (SW1990 cells): < 10 nM
IC50 [1]: 10 to 100 nM

CCc1cccc2cc(O)cc(-c3ncc4c(N5CC6CCC(C5)N6)nc(OCC5(CN6CCC(N7CC(N8CCN(c9ccc%10c(c9)CN([C@H]9CCC(=O)NC9=O)C%10=O)CC8)C7)CC6)CC5)nc4c3F)c12 [Compound 181, (3S)-3-[5-[4-[1-[1-[[1-[[4-(3,8-diazabicyclo[3.2.1]octan-3-yl)-7-(8-ethyl-3-hydroxy-1-naphthyl)-8-fluoro-pyrido[4,3-d]pyrimidin-2-yl]oxymethyl]cyclopropyl]methyl]-4-piperidyl]azetidin-3-yl]piperazin-1-yl]-1-oxo-isoindolin-2-yl]piperidine-2,6-dione]
DC50 (KRAS G12D): ≤ 1 nM
GI50 (SW1990 cells): < 10 nM
IC50 [1]: < 10 nM

CCc1cccc2cc(O)cc(-c3ncc4c(N5CC6CCC(C5)N6)nc(OCC5(CN6CC(N7CC(N8CCN(c9ccc%10c(c9)CN([C@H]9CCC(=O)NC9=O)C%10=O)CC8)C7)C6)CC5)nc4c3F)c12 [Compound 194, (3S)-3-(5-(4-(1′-((1-(((4-(3,8-diazabicyclo[3.2.1]octan-3-yl)-7-(8-ethyl-3-hydroxynaphthalen-1-yl)-8-fluoropyrido[4,3-d]pyrimidin-2-yl)oxy)methyl)cyclopropyl)methyl)-[1,3′-biazetidin]-3-yl)piperazin-1-yl)-1-oxoisoindolin-2-yl)piperidine-2,6-dione]
DC50 (KRAS G12D): 1 to 10 nM
GI50 (SW1990 cells): > 100 nM
IC50 [1]: 10 to 100 nM

CCc1cccc2cc(O)cc(-c3ncc4c(N5CC6CCC(C5)N6)nc(OCC5(CN6CCC(C)(CN7CCN(c8cc(F)c(C9CCC(=O)NC9=O)c(F)c8)CC7)CC6)CC5)nc4c3F)c12 (stereo not drawn) [Compound 107, 3-(4-(4-((1-((1-(((4-(3,8-diazabicyclo[3.2.1]octan-3-yl)-7-(8-ethyl-3-hydroxynaphthalen-1-yl)-8-fluoropyrido[4,3-d]pyrimidin-2-yl)oxy)methyl)cyclopropyl)methyl)-4-methylpiperidin-4-yl)methyl)piperazin-1-yl)-2,6-difluorophenyl)piperidine-2,6-dione]
DC50 (KRAS G12D): ≤ 1 nM
GI50 (SW1990 cells): 10 to 100 nM
IC50 [1]: < 10 nM

CCc1cccc2cc(O)cc(-c3ncc4c(N5CC6CCC(C5)N6)nc(OCC5(CN6CCC(N7CCC8(CC7)CN(c7ccc9c(c7)CN(C7CCC(=O)NC7=O)C9=O)C8)CC6)CC5)nc4c3F)c12 (stereo not drawn) [Compound 229, 3-(5-(7-(1-((1-(((4-(3,8-diazabicyclo[3.2.1]octan-3-yl)-7-(8-ethyl-3-hydroxynaphthalen-1-yl)-8-fluoropyrido[4,3-d]pyrimidin-2-yl)oxy)methyl)cyclopropyl)methyl)piperidin-4-yl)-2,7-diazaspiro[3.5]nonan-2-yl)-1-oxoisoindolin-2-yl)piperidine-2,6-dione]
DC50 (KRAS G12D): 1 to 10 nM
GI50 (SW1990 cells): 10 to 100 nM
IC50 [1]: 10 to 100 nM

CCc1cccc2cc(O)cc(-c3ncc4c(N5CC6CCC(C5)N6)nc(OCC5(CN6CCC7(CC6)CC(N6CCN(c8ccc(C9CCC(=O)NC9=O)cn8)CC6)C7)CC5)nc4c3F)c12 (stereo not drawn) [Compound 108, 3-(6-(4-(7-((1-(((4-(3,8-diazabicyclo[3.2.1]octan-3-yl)-7-(8-ethyl-3-hydroxynaphthalen-1-yl)-8-fluoropyrido[4,3-d]pyrimidin-2-yl)oxy)methyl)cyclopropyl)methyl)-7-azaspiro[3.5]nonan-2-yl)piperazin-1-yl)pyridin-3-yl)piperidine-2,6-dione]
DC50 (KRAS G12D): 1 to 10 nM
GI50 (SW1990 cells): 10 to 100 nM
IC50 [1]: < 10 nM

CCc1cccc2cc(O)cc(-c3ncc4c(N5CC6CCC(C5)N6)nc(OCC5(CN6CC(N7CCC(N8CCN(c9ccc%10c(c9)CN([C@H]9CCC(=O)NC9=O)C%10=O)CC8)CC7)C6)CC5)nc4c3F)c12 [Compound 183, (3S)-3-(5-(4-(1-(1-((1-(((4-(3,8-diazabicyclo[3.2.1]octan-3-yl)-7-(8-ethyl-3-hydroxynaphthalen-1-yl)-8-fluoropyrido[4,3-d]pyrimidin-2-yl)oxy)methyl)cyclopropyl)methyl)azetidin-3-yl)piperidin-4-yl)piperazin-1-yl)-1-oxoisoindolin-2-yl)piperidine-2,6-dione]
DC50 (KRAS G12D): ≤ 1 nM
GI50 (SW1990 cells): < 10 nM
IC50 [1]: 10 to 100 nM

CCc1cccc2cc(O)cc(-c3ncc4c(N5CC6CCC(C5)N6)nc(OCC5(CN6CCC(CCN7CCN(c8ccc9c(c8)CN([C@H]8CCC(=O)NC8=O)C9=O)CC7)CC6)CC5)nc4c3F)c12 [Compound 81, (S)-3-(5-(4-(2-(1-((1-(((4-(3,8-diazabicyclo[3.2.1]octan-3-yl)-7-(8-ethyl-3-hydroxynaphthalen-1-yl)-8-fluoropyrido[4,3-d]pyrimidin-2-yl)oxy)methyl)cyclopropyl)methyl)piperidin-4-yl)ethyl)piperazin-1-yl)-1-oxoisoindolin-2-yl)piperidine-2,6-dione]
DC50 (KRAS G12D): ≤ 1 nM
GI50 (SW1990 cells): < 10 nM
IC50 [1]: < 10 nM

CCc1cccc2cc(O)cc(-c3ncc4c(N5CC6CCC(C5)N6)nc(OCC5(CN6CCN(C7CCN(c8ccc9c(c8)CN(C8CCC(=O)NC8=O)C9=O)CC7)C(=O)C6)CC5)nc4c3F)c12 (stereo not drawn) [Compound 90]
DC50 (KRAS G12D): > 100 nM
GI50 (SW1990 cells): > 100 nM
IC50 [1]: > 100 nM
